Here are results for 2 compounds from publication PMC11376277, “Crystallographic fragment screen of the c-di-AMP-synthesizing enzyme CdaA from Bacillus subtilis” (Acta Crystallographica Section F: Structural Biology …, 2024).

SMILES strings stand for the structures.

The target of this test is T1, EfCdaA (Enterococcus faecium, UniProt Q3Y0C9).
T1 construct: gene dacA; N-terminally truncated soluble DAC domain; codon-optimized synthetic DNA, pET-28a, E. coli Rosetta (DE3); tag cut with PreScission
T1 sequence (Q3Y0C9 121-269): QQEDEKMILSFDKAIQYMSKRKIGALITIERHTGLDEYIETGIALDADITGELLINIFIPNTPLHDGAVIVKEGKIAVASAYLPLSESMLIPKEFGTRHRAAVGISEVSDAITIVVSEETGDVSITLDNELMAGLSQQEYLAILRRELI
Nature of the test: ITC, […] binding model. Conditions: 25 C, pH 7.5, 20 mM Tris-HCl, 300 mM NaCl, 5% DMSO, 10 mM MgCl2. (ITC needs no label: the signal is the heat of the interaction.)

In turn, `Nc1ncnc2c1ncn2[C@@H]1O[C@H](COP(=O)(O)OP(=O)(O)OP(=O)(O)O)[C@@H](O)[C@H]1O` [ATP] returned a Kd of 237 µM.

Take `CC(C)OC(=O)OCOP(=O)(CO[C@H](C)Cn1cnc2c(N)ncnc21)OCOC(=O)OC(C)C` [tenofovir disoproxil]: binding was characterised by a dissociation constant (Kd) of 7.91 µM.

The Kd is the constant that tells how readily two partners part at equilibrium. Read a high Kd as weaker binding.
